Measurements published in patent US10105303B2, “Oral care composition comprising zinc amino acid halides” (Colgate-Palmolive Company, priority 2012, dated 2018).
“And” between values parts separate entries of the source, which are not always exact repeats. Identical values can stand only once.

Legend:
[1] = Dilution experiment of ZLC neat solution: visible flocculation/precipitation and pH; assay type: physicochemical; conditions: for final pH value: diluted sample
Protocol: Various dilutions of ZLC are prepared to evaluate its efficiency in producing visible precipitates and/or flocculation, which can be delivered in situ onto an oral surface or into a dental opening, such as open tubules.
A neat solution of ZLC is prepared by 1), reacting 0.5 mole of ZnO powder with 1 mole of lysine HCl in 1 liter of water at room temperature for about 2 hours, and 2) collecting the supernatant through centrifugation followed by filtration using a 0.45 micron membrane. The neat solution has a zinc concentration of 2.39% by weight, and a pH of about 7.03.
Dilution experiment is conducted by mixing the neat solution with deionized water. The neat solution is diluted by 2×, 4×, 6×, 7×, 8×, 10×, 12×, 16×, 20×, 24×, 28×, and 32×, corresponding to initial zinc concentrations of 1.20%, 0.598%, 0.398%, 0.341%, 0.299%, 0.239%, 0.199%, 0.149%, 0.120%, 0.0996%, 0.0854%, 0.0747%, by weight, respectively. The diluted samples are kept at 37° C., and the rates at which flocculation/precipitation occurred are monitored.
pH values of final diluted samples are suitable for oral care applications. […] These pH values were well within the range of 5.5 to 10, which defines the suitable range for oral care formulations.

[2] = Deposition/occlusion assay on dentine slices, confocal imaging; parameters: species or system human; conditions: for Thickness of surface deposits: 16-fold dilution
Protocol: The deposition/occlusion assay is conducted using human dentine slices and the neat solution of Example 5. The dentine slices were prepared by cutting human tooth into thin dentine sections of about 800 microns in thickness, choosing a test side, sanding said test side using a sandpaper of about 600 grit, polishing said test side using a Buehler polishing cloth and 5 micron Buehler aluminum oxide, acid-etching said dentine section in 1% (by weight) citric acid solution for about 20 seconds, sonicating said dentine section for 10 minutes, and storing said dentine section in phosphate buffered saline (PBS, pH 7.4).
For treatment, the neat solution is diluted 16-fold with water, yielding a treatment solution with initial zinc concentration of about 0.149% by weight. The dentine section is immersed in the treatment solution for 1 hour at 37° C. The treated dentine section is then removed from the treatment solution, and rinsed 4 times, each time with 1 mL of PBS. The dentine section is then dried using a paper-based tissue and examined under confocal microscope in both XYZ and XYZ modes. Subsequent treatments are conducted in the same manner.
Dentine sections, as prepared in Example 6, are repeatedly treated with ZLC dilutions with initial zinc concentration of 0.0747% by weight. […] The dentine section is examined under the confocal microscope after each treatment.

- final pH value ([1]; initial zinc concentration 0.0747%): 7.99
- final pH value ([1]; initial zinc concentration 0.0854%): 8.13
- final pH value ([1]; initial zinc concentration 0.0996%): 8.11
- final pH value ([1]; initial zinc concentration 0.120%): 7.97
- final pH value ([1]; initial zinc concentration 0.149%): 7.99
- final pH value ([1]; initial zinc concentration 0.199 wt %): 6.80
- final pH value ([1]; initial zinc concentration 0.239%): 6.70
- pH of the neat solution ([1]; neat solution, zinc concentration 2.39% by weight): about 7.03
- Initial zinc concentration of the additional sample with flocculation ([1]; two hours after mixing, 37° C.): 0.299%
- Initial zinc concentrations of dilutions with visible flocculation ([1]; within 30 minutes from mixing with water, 37° C.): 0.149% and 0.199%
Substance: [Zn(C6H14N2O2)2Cl]^+Cl^− [ZLC]
- Samples with flocculation and/or precipitation ([1]; after a total of 19 hours, 37° C.): all samples except the one with initial zinc concentration of 1.20%
- Deposition and occlusion on dentine surface ([2]; after 4 consecutive treatments, 0.0747% zinc, 10 minutes each at 37° C.): significant surface deposition
- Deposition and occlusion on dentine surface ([2]; after 12 consecutive treatments, 0.0747% zinc, 10 minutes each at 37° C.): complete surface coverage
- Thickness of surface deposits ([2]; after second treatment, 1 hour at 37° C.): ≥ 10 microns
- Thickness of surface deposits ([2]; after third treatment, 1 hour at 37° C.): ≥ 25 microns
- Deposition and occlusion on dentine surface ([2]; first treatment, 16-fold dilution (about 0.149% zinc), 1 hour at 37° C.): noticeable deposition
- Visible precipitation during treatment ([2]; initial zinc concentration 0.0747%, 10 minutes at 37° C.): no precipitation is observed by naked eyes
- Deposition and occlusion on dentine surface ([2]; second treatment, 16-fold dilution (about 0.149% zinc), 1 hour at 37° C.): complete surface coverage, including blocking of substantially all tubule openings
- Deposition and occlusion on dentine surface ([2]; third treatment, 16-fold dilution (about 0.149% zinc), 1 hour at 37° C.): complete surface coverage and complete blocking of tubule openings
